This is an account of results in ChEMBL document CHEMBL3301448, “MMV Malaria Box screening against Toxoplasma gondii and Entamoeba histolytica”.

One test has as its system Toxoplasma gondii. Description: MMV: A total of 100ul of inoculum was added to each well (parasite/cell ratio, ~10:1; final volume, 200 ul). Six hours after inoculation, nonadherent parasites were removed, and 100 ul of complete DMEM (1% penicillin-streptomycin, 3% FBS) supplemented with inhibitors at different concentrations (2-fold serial dilutions starting from 30 uM) was added to all except the negative-control wells. Positive controls, consisting of pyrimethamine (PYR) and sulfadiazine (SDZ) (20-mg/ml stocks in DMSO), were tested at a 2mg/ml final concentration. Each test was performed in triplicate. In kind it is functional, organism-based. Conditions: 6 h.

The next test relates to Entamoeba histolytica. Briefly: MMV: Primary screening was performed with each compound at a 30 uM final concentration and in triplicate in sealed 96-well polystyrene microtiter plates. Parasite inocula (100 ul) comprising 20000 parasites/ml were added to each well and grown at 37 degrees C in a humidified atmosphere of 5% CO2 for 72 h. Positive controls consisted of metronidazole at 1 mg/ml. The growth of E. histolytica trophozoites in each well was determined microscopically by measuring the diameters of the confluent cells in drug-containing wells relative to those in the nega- tive-control wells. In kind it is functional, organism-based.

As to `COc1ccccc1C(=O)ON=C(N)Cc1cccc2ccccc12`, the IC50 in the test on Toxoplasma gondii and with Entamoeba histolytica was above 30 µM throughout.
In the case of `CC1CCN(Cc2c(O)ccc3cc(-c4nc5ccccc5s4)c(=O)oc23)CC1`, the IC50 in the test on Toxoplasma gondii and in the test with Entamoeba histolytica was above 30 µM throughout.
Consider `CC1CC(C)CN(C(=O)c2ccc(Cl)cc2Cl)C1` (stereo not given), for which the IC50 in the test with Toxoplasma gondii and with Entamoeba histolytica was above 30 µM each time.
As for `CSc1ccccc1C(=O)Nc1nc(-c2ccccn2)cs1`, the IC50 in the test with Toxoplasma gondii and in the test with Entamoeba histolytica was above 30 µM in each case.
On to `O=C(Nc1ccc(CN2CCOCC2)cc1)c1ccc(-c2cc(Cl)ccc2Cl)o1`, for which the IC50 with Toxoplasma gondii and with Entamoeba histolytica was above 30 µM each time.
Regarding `CCN(CC)S(=O)(=O)c1ccc(-c2csc(Nc3ccc(C)c(C)c3)n2)cc1`, the IC50 in the test with Toxoplasma gondii and in the test with Entamoeba histolytica was above 30 µM each time.
`Cc1cccc(Nc2nc(N)c3ccccc3n2)c1`: the IC50 with Toxoplasma gondii and with Entamoeba histolytica was above 30 µM in each case.
As to `CC(C)CNC(=O)c1c(N)n(CCc2ccccc2F)c2nc3ccccc3nc12`, the IC50 (usually the concentration that inhibits the measured activity by half) in the test on Toxoplasma gondii is 26.8 µM; in the test with Entamoeba histolytica, above 30 µM.
Take `CN1CCN(c2nc(Nc3ccc(O)cc3)nc3ccccc23)CC1`: the IC50 in the test with Toxoplasma gondii and in the test on Entamoeba histolytica was above 30 µM throughout.
Regarding `O=C(Nc1ccc(Br)cc1)Nc1cccc(Cl)c1`, the IC50 with Toxoplasma gondii and in the test with Entamoeba histolytica was above 30 µM each time.
As for `CCOc1c(Cl)cc(CNC(C)C(O)c2ccccc2)cc1OC` (stereo not given), the IC50 in the test on Toxoplasma gondii and in the test with Entamoeba histolytica was above 30 µM in each case.
Regarding `O=C(O)C1Cc2c([nH]c3ccccc23)C(c2ccc(Cl)cc2Cl)N1` (stereo not given), the IC50 with Toxoplasma gondii and in the test with Entamoeba histolytica was above 30 µM each time.
For `Cc1ccc2nc(C)cc(Nc3cccc(C(F)(F)F)c3)c2c1`, the IC50 in the test with Toxoplasma gondii and in the test on Entamoeba histolytica was above 30 µM in each case.
As for `N=c1n(CCN2CCCCC2)c2ccccc2n1CC(O)c1cccc(Br)c1` (stereo not given), the IC50 with Toxoplasma gondii and in the test on Entamoeba histolytica was above 30 µM throughout.
For the compound `Cc1ccc2cc3c(N)c4c(C)ccc(C)c4nc3nc2c1`, the half-inhibitory concentration (IC50) with Toxoplasma gondii and in the test with Entamoeba histolytica was above 30 µM in each case.
Regarding `CCN(CC)c1ccc(NC(=O)c2cccs2)cc1`, the IC50 with Toxoplasma gondii and with Entamoeba histolytica was above 30 µM throughout.
With `CCOC(=O)c1cn(CC)c2cc(N(C)CCc3ccc(OC)c(OC)c3)c(F)cc2c1=O`, the IC50 in the test with Toxoplasma gondii and with Entamoeba histolytica was above 30 µM throughout.
As for `Cc1ccc(-c2cc3c(nn2)-c2ccccc2C3=O)cc1`, the IC50 in the test on Toxoplasma gondii and in the test with Entamoeba histolytica was above 30 µM in each case.
In the case of `CCCC(c1nnnn1C1CCCCC1)N1CCN(C(=O)c2ccco2)CC1` (stereo not given), the IC50 with Toxoplasma gondii and in the test on Entamoeba histolytica was above 30 µM throughout.
Regarding `CCCN(CCC)CC(O)COc1ccccc1C(=O)Nc1ccccc1` (stereo not given), the IC50 in the test with Toxoplasma gondii and with Entamoeba histolytica was above 30 µM throughout.
For the compound `Cc1cc(Nc2ccc(C)c(Cl)c2)n2nc(C(F)(F)F)nc2n1`, the IC50 in the test with Toxoplasma gondii and in the test with Entamoeba histolytica was above 30 µM each time.
`Cc1ccc2c(C)nc(Nc3nc(C)cc(-c4ccccc4)n3)nc2c1`: the IC50 in the test with Toxoplasma gondii and with Entamoeba histolytica was above 30 µM each time.
For the compound `Cc1cc(NC(=O)C2c3ccccc3C(=O)N(CC(C)C)C2c2cccs2)no1` (stereo not given), the IC50 with Toxoplasma gondii is 20.9 µM; in the test on Entamoeba histolytica, above 30 µM.
With `COc1nc(Nc2ccc(C(C)C)cc2)nc(OC)n1`, the half-inhibitory concentration (IC50) with Toxoplasma gondii and with Entamoeba histolytica was above 30 µM throughout.
`CCOc1cc2c(cc1OCC)C(c1cc(OC)c(O)cc1Cl)NCC2` (stereo not given): the IC50 in the test on Toxoplasma gondii and with Entamoeba histolytica was above 30 µM in each case.
`CCOC(=O)C1(Cc2ccccc2)CCN(Cc2cccc(OC)c2O)CC1`: the IC50 in the test on Toxoplasma gondii and in the test on Entamoeba histolytica was above 30 µM in each case.
On to `COc1cc2c3cc1Oc1c(OC)c(OC)cc4c1C(Cc1ccc(O)c(c1)Oc1ccc(cc1)CC3N(C)CC2)N(C)CC4` (stereo not given), for which the IC50 in the test on Toxoplasma gondii and in the test on Entamoeba histolytica was above 30 µM throughout.
For `CCOc1ccc(C2N(C)c3ccccc3N2C)cc1`, the IC50 with Toxoplasma gondii and in the test on Entamoeba histolytica was above 30 µM throughout.
`CN(C)c1ccc(C=Cc2nc(=O)c3ccccc3o2)cc1`: the half-inhibitory concentration (IC50) in the test on Toxoplasma gondii and in the test on Entamoeba histolytica was above 30 µM in each case.
For `CCOc1ccc(/C=C/c2nc(=O)c3ccccc3o2)cc1`, the IC50 in the test with Toxoplasma gondii and with Entamoeba histolytica was above 30 µM each time.
